Active and inactive are the calls of the source. The rule behind the calls is not given here.
Legend:
Echinococcus granulosus [1] = assay: Parasiticidal activity against Echinococcus granulosus protoscolices […] by eosin exclusion test; assay type: functional; settings: 1152 h, time 48 day
Echinococcus granulosus [2] = assay: Parasiticidal activity against Echinococcus granulosus protoscolices assessed as death rate at 1 uM incubated for 48 hrs by eosin exclusion test; assay type: functional
Echinococcus granulosus [3] = assay: Parasiticidal activity against Echinococcus granulosus protoscolices assessed as death rate at 5 uM incubated for 4 days by eosin exclusion test; assay type: functional; settings: time 4 day
Echinococcus granulosus [4] = assay: Parasiticidal activity against Echinococcus granulosus protoscolices assessed as lethal effect incubated for 4 days by eosin exclusion test; assay type: functional, organism-based; settings: dose 0.5-5 µM, time 4.0 day
Echinococcus granulosus [5] = assay: Parasiticidal activity against Echinococcus granulosus protoscolices assessed as death rate at 0.5 uM incubated for 4 days by eosin exclusion test; assay type: functional; settings: time 4 day
Echinococcus granulosus [6] = assay: Parasiticidal activity against Echinococcus granulosus protoscolices assessed as increase in death rate at 5 uM incubated for 4 days by darker staining-based light microscopy; assay type: functional, organism-based; settings: time 4.0 day
Echinococcus granulosus [7] = assay: Parasiticidal activity against Echinococcus granulosus protoscolices assessed as appearance of body shrank at 5 uM incubated for 4 days by scanning electron microscopy analysis; assay type: functional, organism-based; settings: time 4.0 day
Echinococcus granulosus [8] = assay: Parasiticidal activity against Echinococcus granulosus protoscolices assessed as appearance of rostellum hooks fall off at 5 uM incubated for 4 days by scanning electron microscopy analysis; assay type: functional, organism-based; settings: time 4.0 day
Echinococcus granulosus [9] = assay: Parasiticidal activity against Echinococcus granulosus protoscolices assessed as appearance of blurred marginal structure at 5 uM incubated for 4 days by scanning electron microscopy analysis; assay type: functional, organism-based; settings: time 4.0 day
Echinococcus granulosus [10] = assay: Parasiticidal activity against Echinococcus granulosus protoscolices assessed as partial vacuolar change at 5 uM incubated for 4 days by scanning electron microscopy analysis; assay type: functional, organism-based; settings: time 4.0 day
Echinococcus granulosus [11] = assay: Parasiticidal activity against Echinococcus granulosus protoscolices assessed as degeneration of outer skin at 5 uM incubated for 4 days by scanning electron microscopy; assay type: functional, organism-based; settings: time 4.0 day
Echinococcus granulosus [12] = assay: Parasiticidal activity against Echinococcus granulosus protoscolices assessed as loss of hooks at 5 uM incubated for 4 days by scanning electron microscopy; assay type: functional, organism-based; settings: time 4.0 day
Echinococcus granulosus [13] = assay: Parasiticidal activity against Echinococcus granulosus protoscolices assessed as loss of suckers at 5 uM incubated for 4 days by scanning electron microscopy; assay type: functional; settings: time 4.0 day
Echinococcus granulosus [14] = assay: Parasiticidal activity against Echinococcus granulosus assessed as collapse of germinal layers at 100 uM incubated for 4 days by scanning electron microscopy; assay type: functional, organism-based; settings: time 4.0 day
Echinococcus granulosus [15] = assay: Parasiticidal activity against Echinococcus granulosus cyst assessed as seperation from cuticle at 100 uM incubated for 4 days by scanning electron microscopy; assay type: functional, organism-based; settings: time 4.0 day
Echinococcus granulosus [16] = assay: Parasiticidal activity against Echinococcus granulosus cyst assessed as formation of dense aggregates at 100 uM incubated for 4 days by scanning electron microscopy; assay type: functional, organism-based; settings: time 4.0 day
[17] = Cmax in Wistar rat at 5 mg/kg, iv by HPLC analysis; assay type: ADME, organism-based; set-up: dose 5 mg/kg, route iv; settings: in vivo
[18] = AUC (0 to infinity) in Wistar rat at 5 mg/kg, iv by HPLC analysis; assay type: ADME, organism-based; set-up: dose 5 mg/kg, route iv; settings: in vivo
[19] = Oral bioavailability in Wistar rat at 50 mg/kg, […] by HPLC analysis; assay type: ADME, organism-based; settings: in vivo
Echinococcus granulosus [20] = assay: Parasiticidal activity against Echinococcus granulosus protoscolices assessed as lethal effect at 0.5 to 5 uM by eosin exclusion test; assay type: functional, organism-based; settings: dose 0.5-5 µM, TDE = time-dependent effect
Echinococcus granulosus [21] = assay: Parasiticidal activity against Echinococcus granulosus protoscolices assessed as change in ultrastructure at 5 uM incubated for 4 days by scanning electron microscopy; assay type: functional, organism-based; settings: time 4.0 day
[22] = Neurotoxicity in Kunming mouse assessed as loosely arranged pyramidal cells in brain at 50 mg/kg, ip administered for 28 days by H and E staining based assay; assay type: toxicity, organism-based; settings: in vivo, 672 h, time 28 day
[23] = Neurotoxicity in Kunming mouse assessed as swollen pyramidal cells in brain at 50 mg/kg, ip administered for 28 days by H and E staining based assay; assay type: toxicity, organism-based; settings: in vivo, 672 h, time 28 day
[24] = Neurotoxicity in Kunming mouse assessed as deformed pyramidal cells in brain at 50 mg/kg, ip administered for 28 days by H and E staining based assay; assay type: toxicity, organism-based; settings: in vivo, 672 h, time 28 day
[25] = Neurotoxicity in Kunming mouse assessed as effect on hippocampal structure at 50 mg/kg, ip administered for 28 days by TEM analysis; assay type: toxicity, organism-based; settings: in vivo, 672 h, time 28 day
[26] = Neurotoxicity in Kunming mouse assessed as effect on hippocampal arrangement at 50 mg/kg, ip administered for 28 days by TEM analysis; assay type: toxicity, organism-based; settings: in vivo, 672 h, time 28 day
[27] = Neurotoxicity in Kunming mouse assessed as effect on heterochromatin at 50 mg/kg, ip administered for 28 days by TEM analysis; assay type: toxicity, organism-based; settings: in vivo, 672 h, time 28 day
[28] = Neurotoxicity in Kunming mouse assessed as organelles damage at 50 mg/kg, ip administered for 28 days by TEM analysis; assay type: toxicity, organism-based; settings: in vivo, 672 h, time 28 day
[29] = Neurotoxicity in Kunming mouse assessed as nuclei damage at 50 mg/kg, ip administered for 28 days by TEM analysis; assay type: toxicity, organism-based; settings: in vivo, 672 h, time 28 day
Echinococcus granulosus [30] = assay: Inhibition of Echinococcus granulosus; assay type: functional

## COc1cccc(-c2nc(NC(=O)c3ccc(CN4CCCN(C)CC4)cc3)cc3c2[nH]c2ccccc23)c1
Echinococcus granulosus [1]
  LC50: 17.9 µM

## COc1ccc(-c2nc(C(=O)Nc3ccc(CN4CCC(N5CCCCC5)CC4)cc3)cc3c2[nH]c2ccccc23)c(OC)c1
Echinococcus granulosus [2]
  Activity: Active
Echinococcus granulosus [1]
  LC50: 13 µM

## COc1ccc(-c2nc(C(=O)Nc3ccc(CN4CCC(N5CCCCC5)CC4)cc3)cc3c2[nH]c2ccccc23)cc1
Echinococcus granulosus [2]
  Activity: Active
Echinococcus granulosus [1]
  LC50: 7.67 µM

## COc1ccc(-c2nc(NC(=O)c3ccc(CN4CCC(N5CCCCC5)CC4)cc3)cc3c2[nH]c2ccccc23)cc1OC
Echinococcus granulosus [2]
  Activity: 56.27%
Echinococcus granulosus [1]
  LC50: 3.59 µM
Echinococcus granulosus [3]
  Activity: >90%
Echinococcus granulosus [4]
  Activity: Dose-Dependent Effect
Echinococcus granulosus [5]
  Activity: >50%
Echinococcus granulosus [6]
  Activity: Active
Echinococcus granulosus [7]
  Activity: Active
Echinococcus granulosus [8]
  Activity: Active
Echinococcus granulosus [9]
  Activity: Active
Echinococcus granulosus [10]
  Activity: Active
Echinococcus granulosus [11]
  Activity: Active
Echinococcus granulosus [12]
  Activity: Active
Echinococcus granulosus [13]
  Activity: Active
Echinococcus granulosus [14]
  Activity: Active
Echinococcus granulosus [15]
  Activity: Active
Echinococcus granulosus [16]
  Activity: Active
[17]
  Cmax: 1400 ng/mL
[18]
  AUC(0-inf): 1770 ng·h/mL
[19]
  bioavailability: 26.8%
Echinococcus granulosus [20]
  Activity: Tde
Echinococcus granulosus [21]
  Activity: Active

## CCCSc1ccc2nc(NC(=O)OC)[nH]c2c1 [ALBENDAZOLE]
[22]
  Activity: Non-Toxic
[23]
  Activity: Non-Toxic
[24]
  Activity: Non-Toxic
[25]
  Activity: Non-Toxic
[26]
  Activity: Non-Toxic
[27]
  Activity: Non-Toxic
[28]
  Activity: Non-Toxic
[29]
  Activity: Non-Toxic

## CCCCn1c2ccccc2c2ccnc(-c3ccc(OC)cc3)c21
Echinococcus granulosus [30]
  LC50: 47.8 µM

## COc1cccc(-c2nc(C(=O)Nc3ccc(CN4CCC(N5CCCCC5)CC4)cc3)cc3c2[nH]c2ccccc23)c1
Echinococcus granulosus [2]
  Activity: Active
Echinococcus granulosus [1]
  LC50: 18.1 µM

## COc1cc(-c2nc(NC(=O)c3ccc(CN4CCCN(C)CC4)cc3)cc3c2[nH]c2ccccc23)cc(OC)c1OC
Echinococcus granulosus [2]
  Activity: Active
Echinococcus granulosus [1]
  LC50: 16 µM

Source: ChEMBL document CHEMBL5344429, “1,3-Substituted β-Carboline Derivatives as Potent Chemotherapy for the Treatment of Cystic Echinococcosis” (J Med Chem, 2023)
